Experimental data as given in patent publication US20050014811A1, “Substituted benzimidazole compounds and their use for the treatment of cancer” (Aventis Pharma S.A., priority 2001, published 2005).

The compounds below were run against CDK4/CyclinD1 (Homo sapiens, UniProt P11802) (assay: CDK4/CyclinD1 Flashplate assay, 96-well format, biotinylated-Rb peptide substrate). Settings: not given.
CDK4/CyclinD1, sequence (P11802 whole entry, species assumed): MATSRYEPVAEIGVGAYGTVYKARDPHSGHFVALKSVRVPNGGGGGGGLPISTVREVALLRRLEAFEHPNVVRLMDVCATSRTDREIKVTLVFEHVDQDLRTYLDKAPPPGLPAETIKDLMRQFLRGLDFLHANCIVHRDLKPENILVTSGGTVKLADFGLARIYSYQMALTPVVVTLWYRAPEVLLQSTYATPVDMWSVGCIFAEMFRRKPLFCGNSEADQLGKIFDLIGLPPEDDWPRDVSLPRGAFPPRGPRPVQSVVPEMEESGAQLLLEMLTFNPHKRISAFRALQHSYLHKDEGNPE
CDK4/CyclinD1, sequence (P24385 whole entry partner, species assumed): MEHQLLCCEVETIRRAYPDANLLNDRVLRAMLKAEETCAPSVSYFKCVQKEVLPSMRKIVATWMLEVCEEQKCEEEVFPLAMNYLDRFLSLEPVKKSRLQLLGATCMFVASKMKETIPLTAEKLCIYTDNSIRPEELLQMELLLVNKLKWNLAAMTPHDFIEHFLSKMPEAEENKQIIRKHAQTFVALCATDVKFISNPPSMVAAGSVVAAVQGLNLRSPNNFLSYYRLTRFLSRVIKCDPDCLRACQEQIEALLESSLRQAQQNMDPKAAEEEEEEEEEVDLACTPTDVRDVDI
Assay type: biochemical
Method: This is a CDK4/CyclinD1 kinase assay in a 96-well Streptavidin-coated Flashplate with a biotinylated-Rb peptide substrate.
Each point is tested in duplicate
Biotinylated-Rb: Biotin-[…]
• 1. Prepare substrate: 1 mg/ml solution made fresh in PBS. • 2. Add 100 μg per well to the Flashplate. • 3. Incubate for 2 hours at RT. • 4. From 10 mM inhibitor stocks in DMSO, make 1 mM, 300 μM, 100 μM, 30 μM and 10 μM series of dilution in DMSO. • 5. Wash the Flashplate 3 times with 300 μl PBS to remove unbound peptide substrate. • 6. Add the CDK4/CyclinD1 kinase: 70 ng per well, in a volume of 90 μl in kinase buffer (except for “no enzyme” control wells). • 7. Add 1 μl^1 per well of inhibitor to test 10 μM, 3 μM, 1 μM, 0.3 μM and 0.1 μM in final concentration per 100 μl in each well. • 8. Shake gently the Flashplate 1 minute. • 9. Incubate 30 minutes on wet ice. • 10. Initiate the reaction with 10 μl kinase buffer containing 1 μM final cold ATP and 1 μCi final ^33P-ATP per well. • 11. Shake gently the Flashplate 1 minute. • 12. Incubate 45 minutes at RT (no shaking). • 13. Wash the Flashplate 3 times with 300 μl PBS • 14. Count to detect the incorporation of ^33P-ATP by the kinase to the Rb phosphorylation site.
Work on `COC(=O)Nc1nc2cc(OS(=O)(=O)c3ccc(OCC(=O)N4CCN(C)CC4)cc3)ccc2[nH]1` [Example 66-a, 4-[2-(4-Methyl-piperazin-1-yl)-2-oxo-ethoxy]-benzenesulfonic acid 2-methoxycarbonylamino-1H-benzoimidazol-5-yl ester] yielded an inhibition at 10 µM of 19%. In the case of `CCN(CC)CCCNC(=O)COc1ccc(S(=O)(=O)Oc2ccc3[nH]c(NC(=O)OC)nc3c2)cc1` [Example 66-b, 4-[(3-diethylamino-propylcarbamoyl)-methoxy]-benzenesulfonic acid 2-methoxycarbonylamino-1H-benzoimidazol-5-yl ester], the IC50 is reported as 3050 nM. Compound `COC(=O)Nc1nc2ccc(OS(=O)(=O)c3ccc(NCC4CC4)cc3)cc2[nH]1` [Example 67, 4-(cyclopropylmethyl-amino)-benzene sulfonic acid 2-methoxycarbonylamino-1H-benzoimidazol-5-yl ester] has an inhibition at 10 µM of 91%. Work on `COCCNc1ccc(S(=O)(=O)Oc2ccc3[nH]c(NC(=O)OC)nc3c2)cc1` [Example 68-a, 4-(2-methoxy-ethylamino)-benzenesulfonic acid 2-methoxycarbonylamino-1H-benzoimidazol-5-yl ester] yielded an inhibition at 10 µM of 97%. `COC(=O)Nc1nc2cc(OS(=O)(=O)c3ccc(NC(C)CO)cc3)ccc2[nH]1` (stereo not shown) [Example 68-b, 4-(2-hydroxy-1-methyl-ethylamino)-benzenesulfonic acid 2-methoxycarbonylamino-1H-benzoimidazol-5-yl ester] showed an inhibition at 10 µM of 78%. `O=S(=O)(Oc1ccc2[nH]c(Nc3ccccc3)nc2c1)c1ccc(NC2CCCC2)cc1` [Example 70-a, 4-Cyclopentylamino-benzenesulfonic acid 2-phenylamino-1H-benzoimidazol-5-yl ester] was tested, and the IC50 was 1180 nM. Compound `COCCNc1ccc(S(=O)(=O)Oc2ccc3[nH]c(NC(=O)NCCN4CCOCC4)nc3c2)cc1` [Example 78-e, 4-(2-Methoxy-ethylamino)-benzenesulfonic acid 2-[3-(2-morpholin-4-yl-ethyl)-ureido]-1H-benzoimidazol-5-yl ester] has an IC50 of 600 nM. `COCCNc1ccc(S(=O)(=O)Oc2ccc3[nH]c(NC(=O)NCc4ccccn4)nc3c2)cc1` [Example 78-f] showed an IC50 of 100 nM. `CCNC(=O)Nc1nc2cc(OS(=O)(=O)c3ccc(NCCOC)cc3)ccc2[nH]1` [Example 78-h, 4-(2-Methoxy-ethylamino)-benzenesulfonic acid 2-[3-(2-ethyl)-ureido]-1H-benzoimidazol-5-yl ester] gave an inhibition at 10 µM of 90%. With `CC(CO)Nc1ccc(S(=O)(=O)Oc2ccc3[nH]c(NC(=O)NCCN4CCOCC4)nc3c2)cc1` (stereo not shown) [Example 78-i, 4-(2-Hydroxy-1-methyl-ethylamino)-benzenesulfonic acid 2-[3-(2-morpholin-4-yl-ethyl)-ureido]-1H-benzoimidazol-5-yl ester] the inhibition at 10 µM was 97%. `COCCNC(=O)Nc1nc2cc(OS(=O)(=O)c3ccc(NC(C)CO)cc3)ccc2[nH]1` (stereo not shown) [Example 78-k, 4-(2-Hydroxy-1-methyl-ethylamino)-benzenesulfonic acid 2-[3-(2-methoxy-ethyl)-ureido]-1H-benzoimidazol-5-yl ester] gave an inhibition at 10 µM of 78%. In the case of `CCNC(=O)Nc1nc2cc(OS(=O)(=O)c3ccc(NC(C)CO)cc3)ccc2[nH]1` (stereo not shown) [Example 78-l, 4-(2-Hydroxy-1-methyl-ethylamino)-benzenesulfonic acid 2-[3-(2-ethyl)-ureido]-1H-benzoimidazol-5-yl ester], the inhibition at 10 µM is reported as 100%. `COCCNC(=O)Nc1nc2cc(OS(=O)(=O)c3ccc(OCc4ccccc4)cc3)ccc2[nH]1` [Example 78-o, 4-Benzyloxy-benzenesulfonic acid 2-[3-(2-methoxy-ethyl)-ureido]-1H-benzoimidazol-5-yl ester] showed an inhibition at 10 µM of 54%. With `COCCNC(=O)Nc1nc2cc(OS(=O)(=O)c3ccc(NCCN4CCOCC4)cc3)ccc2[nH]1` [Example 78-s, 4-(2-Morpholin-4-yl-ethylamino)-benzenesulfonic acid 2-[3-(2-methoxy-ethyl)-ureido]-1H-benzoimidazol-5-yl ester] the inhibition at 10 µM was 88%. With `O=C(NCCN1CCOCC1)Nc1nc2cc(OS(=O)(=O)c3ccc(NCC4CCNCC4)cc3)ccc2[nH]1` [Example 78-t, 4-[(Piperidin-4-ylmethyl)-amino)-benzenesulfonic acid 2-[3-(2-morpholin-4-yl-ethyl)-ureido]-1H-benzoimidazol-5-yl ester] the inhibition at 10 µM was 55%. `COCCNC(=O)Nc1nc2cc(OS(=O)(=O)c3ccc(NCC4CCNCC4)cc3)ccc2[nH]1` [Example 78-v, 4-[(Piperidin-4-ylmethyl)-amino]-benzenesulfonic acid 2-[3-(2-methoxy-ethyl)-ureido]-1H-benzoimidazol-5-yl ester] was tested, and the inhibition at 10 µM was 46%. Compound `O=C(NCCN1CCOCC1)Nc1nc2cc(OS(=O)(=O)c3ccc(NCc4ccccc4)cc3)ccc2[nH]1` [Example 78-w, 4-Benzylamino-benzenesulfonic acid 2-[3-(2-morpholin-4-yl-ethyl)-ureido]-1H-benzoimidazol-5-yl ester] has an inhibition at 10 µM of 90%. Compound `O=C(NCCF)Nc1nc2ccc(OS(=O)(=O)c3ccc(NCCF)cc3)cc2[nH]1` [Example 80-c, 4-(2-Fluoro-ethylamino)-benzenesulfonic acid 2-[3-(2-fluoro-ethyl)-ureido]-3H-benzoimidazol-5-yl ester] has an inhibition at 10 µM of 100%. Compound `COCC(O)CNC(=O)Nc1nc2ccc(OS(=O)(=O)c3ccc(NCC(O)COC)cc3)cc2[nH]1` (stereo not shown) [Example 80-m, 4-(2-Hydroxy-3-methoxy-propylamino)-benzenesulfonic acid 2-[3-(2-hydroxy-3-methoxy-propyl)-ureido]-3H-benzoimidazol-5-yl ester] has an inhibition at 10 µM of 103%. For `O=C(NCCN1CCOCC1)Nc1nc2ccc(OS(=O)(=O)c3ccc(NCc4ccccn4)cc3)cc2[nH]1` [Example 82-h, 4-[(Pyridin-2-ylmethyl)-amino]-benzene sulfonic acid 2-[3-(2-morpholin-4-yl-ethyl)-ureido]-3H-benzimidazol-5-yl ester], the inhibition at 10 µM was 92%.

Same assay, conditions: at 10 μM
For `O=C(NCc1ccccn1)Nc1nc2cc(OS(=O)(=O)c3ccc(OCc4ccccc4)cc3)ccc2[nH]1` [Example 78-n], the “inhibition of CDK4/cyclinD1 at 10 μM” value was 54% inhibition at 10 μM. In the case of `O=C(NCc1ccccn1)Nc1nc2cc(OS(=O)(=O)c3ccc(NCC4CCNCC4)cc3)ccc2[nH]1` [Example 78-u], the “inhibition of CDK4/cyclinD1 at 10 μM” value is reported as 93% inhibition at 10 μM.
